In article PMC5983770, “Preferential Inhibition of Wnt/β-Catenin Signaling by Novel Benzimidazole Compounds in Triple-Negative Breast Cancer” (International Journal of Molecular Sciences, 2018):
Converted amounts (≈) assume the structure as drawn. Like-named read-outs stand apart in the source and are kept apart here.

Key:
[1] = tested on: MDA-MB-231 cells; assay: Annexin V/PI apoptosis assay (flow cytometry); format: cell-based, human; conditions: 48 h; for apoptosis compared to DMSO / scatterplot quadrant Q1 (Annexin V/PI) / scatterplot quadrant Q3 (Annexin V/PI) / scatterplot quadrant Q2 (Annexin V/PI) / scatterplot quadrant Q4 (Annexin V/PI): MDA-MB-231, 5 µM; for percentage of MDA-MB-231 cells in the late apoptotic phase (% of total): 5 µM, vehicle control 8.1%; for scatterplot quadrant Q1 (Annexin V/PI): DMSO 1.1; for scatterplot quadrant Q3 (Annexin V/PI): DMSO 3.4; for scatterplot quadrant Q2 (Annexin V/PI): DMSO 8.1; for scatterplot quadrant Q4 (Annexin V/PI): DMSO 87.5
Experimental: (§1) Cells were seeded in 6-well tissue-culture treated plates (Corning) for overnight incubation. Culture media was replaced with growth media containing 1% FBS. Cells were treated with compounds for 48 h prior to harvest. Apoptosis/necrosis was detected by the FITC Annexin V Apoptosis Detection Kit I from Becton Dickinson (San Jose, CA, USA). Cells positive for Annexin V, propidium iodide (PI) or both were all designated as apoptotic.

[2] = tested on: MDA-MB-468 cells; assay: Annexin V/PI apoptosis assay (flow cytometry); format: cell-based, human; conditions: MDA-MB-468, 5 µM, 48 h
Experimental: as §1

[3] = tested on: SUM149, SUM159, MDA-MB-231 and MDA-MB-468 TNBC cell lines
Experimental: (§3) MCF10A and TNBC cells (2 × 10^3) were seeded with appropriate growth media containing 10% FBS in each well of tissue culture-treated 96-well black plates (Corning #3904) (Corning, NY, USA) 16 h prior to treatment. […] Cell viability was then evaluated with Cell Titer Glo (Promega, Madison, WI, USA) and luminescence was measured using a TOPCount NXT plate reader (PerkinElmer, Waltham, MA, USA). Curves were fit according to nonlinear regression and IC50 values were calculated using GraphPad Prism 7. Cells were treated in quadruplicates and experiments were performed three times.

[4] = tested on: SUM149, SUM159, MDA-MB-231 and MDA-MB-468 TNBC cell lines; assay: In vitro cytotoxicity (Cell Titer Glo cell viability); conditions: for selective cytotoxicity against TNBC cell lines compared to MCF10A cells: TNBC cell lines versus MCF10A cells; for IC50: Homo sapiens, 72 h, read-out: IC50 values for TNBC cell lines (cell viability)
Experimental: as §3

[5] = tested on: Notch signaling (Hes1); assay: Western blot of Notch signaling (Hes1); format: cell-based; conditions: as summarised in the abstract
Experimental: (§2) Cells were seeded in 6-well tissue-culture treated plates for 48 h until 80% confluency prior to treatment. Whole cell extracts were prepared with Laemmli buffer (5% SDS, 10% glycerol, 0.5 M Tris-Cl) supplemented with protease and phosphatase inhibitors and equivalent amounts of proteins were separated by SDS-PAGE. Proteins were transferred to polyvinylidene difluoride (PVDF) membrane (Bio-Rad, Hercules, CA, USA) and blocked with 5% BSA in tris-buffered saline (TBS) supplemented with 0.1% Tween-20 for 1 h. Membranes were incubated with primary antibody overnight on a shaker at 4 °C. They were then washed and incubated with secondary antibody for 1 h. Bands were visualized with the Enhanced Chemiluminescence Detection reagents (PerkinElmer).

[6] = tested on: p4EBP1 (mTOR signaling); assay: Western blot of 4EBP1 phosphorylation (mTOR signaling) in TNBC cell lines; format: cell-based, human; conditions: for phosphorylation of 4EBP1: both TNBC cell lines, 18 h
Experimental: as §2

[7] = tested on: phosphodiesterase; set-up: method as in PMID 22264761; conditions: screen of thirty 6-nitrobenzimidazoles; cited from earlier work
[8] = tested on: Wnt/β-catenin signaling; conditions: cited from earlier work
[9] = tested on: Wnt/β-catenin signaling; assay: Effect on Wnt/β-catenin signaling (Western blot); format: cell-based; conditions: as summarised in the abstract
Experimental: as §2

[10] = tested on: pSTAT3 (Y705), STAT3; assay: Western blot of STAT3 phosphorylation and STAT3β isoform; format: cell-based; conditions: for expression of the pSTAT3β and total STAT3β isoform (lower band): MDA-MB-468 and MCF10A cells; for expression of the pSTAT3β and total STAT3β isoform (lower band) / STAT3 phosphorylation: 18 h; for STAT3 phosphorylation: TNBC and MCF10A cells, 2.5 or 5 µM
Experimental: as §2

[11] = tested on: active (non-phosphorylated) β-catenin; assay: Western blot of active β-catenin after cytoplasmic-nuclear fractionation; format: cell-based, human; conditions: 5 µM, 18 h; for nuclear active β-catenin expression (Western blot): TNBC cells
Experimental: as §2
Cells were lysed using the CERI and CERII reagents of the cytoplasmic-nuclear extraction kit (ThermoFisher), to obtain cytoplasmic fractions following treatment. Nuclear fractions were isolated by using 1× Laemmli buffer and sonication for a few seconds. Membrane was incubated overnight with active β-catenin (MilliporeSigma, Burlington, MA, USA), lamin A/C and tubulin antibodies.

[12] = tested on: noncancerous MCF10A cells; assay: In vitro cytotoxicity (Cell Titer Glo cell viability); format: cell-based; conditions: Homo sapiens, MCF-10A; 0–5 µM, 72 h
Experimental: as §3

[13] = tested on: active β-catenin; assay: Immunocytochemistry of active β-catenin; format: cell-based, human; conditions: MDA-MB-231 and MDA-MB-468 cells, 5 µM, 18 h
Experimental: Cells were seeded on coverslips for 48 h prior to treatment with DMSO and SR compounds for 18 h. Cells were washed with PBS, fixed with 4% paraformaldehyde for 20 min and permeabilized with 0.5% Triton X-100 for 20 min. Following blocking with 3% BSA for 30 min, cells were incubated overnight with active β-catenin antibody (MilliporeSigma) at 4 °C. Cells were incubated with Alexa 488 goat anti-mouse secondary antibody (1:1000) at room temperature for 1 h. To counterstain, cells were incubated with 1:5000 Hoechst 33342 for 20 min. […] Images were obtained at 20× magnification.

[14] = tested on: phosphorylated LRP6; assay: Western blot of phosphorylated LRP6 in TNBC cell lines; format: cell-based, human; conditions: both TNBC cell lines (MDA-MB-231, MDA-MB-468), 18 h
Experimental: as §2

[15] = tested on: p4EBP1 (mTOR signaling); assay: Western blot of 4EBP1 phosphorylation (mTOR signaling) in MCF10A cells; format: cell-based; conditions: 18 h
Experimental: as §2

[16] = tested on: phosphorylated LRP6; assay: Western blot of phosphorylated LRP6 in MCF10A cells; format: cell-based; conditions: 2.5 or 5 µM, 18 h
Experimental: as §2

[17] = tested on: cyclin D1 and survivin; assay: Western blot of cyclin D1 and survivin in TNBC cells; format: cell-based, human; conditions: 2.5 and 5 µM, 18 h
Experimental: as §2

[18] = rat liver microsomes; introduction, no reference given; cited from earlier work
[19] = pH 7.4; introduction, no reference given; cited from earlier work
[20] = tested on: cyclin D1 and survivin; assay: Western blot of cyclin D1 and survivin in MCF10A cells; format: cell-based; conditions: 2.5 µM, 18 h, compared with niclosamide
Experimental: as §2

[21] = cited from earlier work
[22] = set-up: method as in PMID 20194742; conditions: cited from earlier work

Row | Molecule | apoptosis compared to DMSO [1] | apoptosis compared to DMSO [2] | IC50 [4] [nM] | IC50 [12] [nM] | percentage of MDA-MB-231 cells in the late apoptotic phase (% of total) [1] [%] | scatterplot quadrant Q1 (Annexin V/PI) [1] | scatterplot quadrant Q3 (Annexin V/PI) [1] | scatterplot quadrant Q2 (Annexin V/PI) [1] | scatterplot quadrant Q4 (Annexin V/PI) [1] | expression of the pSTAT3β and total STAT3β isoform (lower band) [10] | STAT3 phosphorylation [10] | phosphorylated LRP6 [16] | also measured
1 | 2-(5-Chloro-6-fluoro-1H-benzo[d]imidazol-2-yl)-4-fluorophenol [SRI35361] | did not induce significantly more apoptosis | did not induce significantly more apoptosis | – | – | – | – | – | – | – | – | – | – | selective cytotoxicity against TNBC cell lines compared to MCF10A cells [3]: not selectively cytotoxic
2 | O=[N+]([O-])c1ccc2nc(-c3cc(Cl)ccc3O)[nH]c2c1 [SRI32529] | – | – | – | – | – | – | – | – | – | – | – | – | selective cytotoxicity against TNBC cell lines compared to MCF10A cells [4]: not selectively cytotoxic; effect on Notch signaling [5]: mitigated; effect on mTOR signaling ([6]; as summarised in the abstract): mitigated; outcome of screen for phosphodiesterase inhibitors [7]: not selected as one of the effective inhibitors; potency in inhibiting Wnt/β-catenin signaling relative to SRI33576 [8]: less potency; effect on Wnt/β-catenin signaling [9]: inhibited Wnt/β-catenin signaling; effect on STAT3 signaling ([10]; as summarised in the abstract): mitigated
3 | Oc1ccc(Cl)cc1-c1nc2ccc(C(F)(F)F)cc2[nH]1 [SRI33576] | induced significantly more apoptosis | induced significantly more apoptosis | 1900 to 3200 | 5000 | 24 | 10.7 | 11.1 | 24.0 | 54.3 | not | noticeably less of an effect | not | nuclear active β-catenin expression (Western blot) [11]: decreased nuclear active β-catenin expression; phosphorylation of 4EBP1 ([6]; 5 µM): inhibited phosphorylation of 4EBP1; nuclear active β-catenin expression (immunocytochemistry) [13]: a decrease in nuclear active β-catenin expression; phosphorylated LRP6 ([14]; 5 µM): decreased phosphorylated LRP6; phosphorylation of 4EBP1 ([15]; 5 µM): did not yield such a change; inhibition of Wnt/β-catenin signaling ([8]; colorectal cancer cells, decreasing cytosolic axin2 and β-catenin and overall c-myc, survivin and cyclin D1): inhibit Wnt/β-catenin signaling; expression of cyclin D1 and survivin [17]: decreased expression
4 | Oc1ccc(F)cc1-c1nc2c(Cl)cc(Cl)cc2[nH]1 [SRI35357, 2-(5,7-Dichloro-3H-benzo[d]imidazol-2-yl)-4-fluorophenol] | – | – | – | – | – | – | – | – | – | – | – | – | selective cytotoxicity against TNBC cell lines compared to MCF10A cells [4]: not selectively cytotoxic
5 | O=C(Nc1ccc([N+](=O)[O-])cc1Cl)c1cc(Cl)ccc1O [niclosamide, reference compound] | – | – | 300 to 1000 | 1000 | 29.5 | 6.09 | 10.5 | 29.5 | 53.9 | markedly decreased | downregulated STAT3 phosphorylation | decreased phosphorylated LRP6 | metabolic stability t1/2 [18]: 29 min; solubility [19]: 1.6 µM (≈ 0.523 µg/mL)
6 | Oc1ccc(Cl)cc1-c1nc2cc(Cl)c(Cl)cc2[nH]1 [SRI35889, 4-Chloro-2-(5,6-dichloro-1H-benzo[d]imidazol-2-yl)phenol] | induced significantly more apoptosis | induced significantly more apoptosis | 1100 to 2400 | 5400 | 26.5 | 15.1 | 11.0 | 26.5 | 47.4 | not | noticeably less of an effect | not | effect on Notch signaling [5]: not affecting; cytoplasmic β-catenin (Western blot) ([11]; MDA-MB-468 cells): decreased cytoplasmic β-catenin; nuclear active β-catenin expression (Western blot) [11]: decreased nuclear active β-catenin expression; phosphorylation of 4EBP1 ([6]; 2.5 and 5 µM): inhibited 4EBP1 phosphorylation; nuclear active β-catenin expression (immunocytochemistry) [13]: a decrease in nuclear active β-catenin expression; phosphorylated LRP6 ([14]; 2.5 and 5 µM): decreased phosphorylated LRP6; phosphorylation of 4EBP1 ([15]; 2.5 µM, compared with TNBC cell lines): less of a change; cyclin D1 or survivin expression [20]: did not affect cyclin D1 or survivin expression as much as niclosamide; expression of cyclin D1 and survivin [17]: decreased expression
7 | C=CCN1CC(=O)N2[C@@H](Cc3ccc(OP(=O)([O-])[O-])cc3)C(=O)N(Cc3cccc4cn(C)nc34)C[C@@H]2N1C(=O)NCc1ccccc1.[Na+].[Na+] [CWP232228] | – | – | – | – | – | – | – | – | – | – | – | – | blood concentration ([21]; IV, 200 mg/kg, for 7 h): 800 ng/mL; toxicity in animals [21]: minimal toxicity and no obvious clinical signs
8 | Mesd: an LRP6 antagonist (protein, UniProt Q14696 34-234, looked up) LRP chaperone MESD: AEGSPGTPDESTPPPRKKKKDIRDYNDADMARLLEQWEKDDDIEEGDLPEHKRPSAPVDFSKIDPSKPESILKMTKKGKTLMMFVTVSGSPTEKETEEITSLWQGSLFNANYDVQRFIVGSDRAIFMLRDGSYAWEIKDFLVGQDRCADVTLEGQVYPGKGGGSKEKNKTKQDKGKKKKEGDLKSRSSKEENRAGNKREDL | – | – | – | – | – | – | – | – | – | – | – | – | time of highest blood concentration ([22]; mice dosed with 5, 10, 20 mg/kg): 2 h; bioavailability ([22]; mice): about 60%
